Measurements as given in US10066212B2, “Method for preparing induced pluripotent stem cells using synthetic peptide” (Seoul National University R&DB Foundation, priority 2015, dated 2018).

How the values were obtained:
Type in all cases: cell-based
[1] = test system: human dermal fibroblasts introduced with reprogramming genes; experiment: Oct4 embryonic stem cell marker expression by immunofluorescence (IF); conditions: 10 μM peptide for 10 days; compared with cells without peptide and control peptides C1 or C2; FIG. 2
Protocol: Using the same method as in Example 2-1, reprogramming genes were introduced into the cells by an electroporation method in human dermal fibroblasts and divided in a 6-well coated with vitronectin. Thereafter, expression levels of Oct4 as a marker of embryonic stem cells were compared with each other by using an immunofluorescence (IF) method. The cells treated with 10 μM of each peptide for 10 days were fixed with 4% paraformaldehyde for 10 minutes at room temperature, and then 0.5% Triton-X 100 was added and they were cultured for 15 minutes at room temperature to pass through a cell wall and to penetrate into nuclei in the cells, and blocked with a buffer PBS in which 3% bovine serum albumin (BSA) was dissolved for 30 minutes. An Oct4 primary antibody was diluted with a buffer PBS in which 1% BSA was dissolved at a ratio of 1:100 and reacted for 16 hrs at 4° C. and a secondary antibody bound with fluorescein isothiocyanate (FITC) was diluted at a ratio of 1:200 and reacted for 1 hr at room temperature. Finally, a dye (Hoechst 33342, blue) for staining nuclei was treated for 10 minutes at room temperature and washed with a buffer PBS, and colonies with the clearest fluorescent expression in the well were photographed with a confocal scanning microscope (IX 70, Olympus Co., Tokyo, Japan).

[2] = test system: human dermal fibroblasts (hDF) introduced with reprogramming genes; experiment: Colony number of induced pluripotent stem cells by alkaline phosphatase (AP) staining; conditions: for dedifferentiation induction, graph counting and quantifying the number of colonies / AP-stained colonies: 10 μM peptide, 10 days at 24-hr intervals, FIG. 1; for AP-stained colonies: compared with cells without peptide and control peptides C1 or C2; for AP staining clarity: group treated with peptide, reported with FIG. 2
Source text: In order to verify the dedifferentiation induction efficiency of each peptide, the DNAs of reprogramming genes Oct3/4, Sox2, c-Myc, Klf4, and Lin28 were introduced to human dermal fibroblasts (hDF) of 1.5×10^5/well on a 6-well coated with […] of vitronectin recombinant human protein (VTN-N) by an electroporation method. According to a known method, the reprogramming genes were divided into three groups and cloned into three different episomal vectors and expressed together with p53 shRNA(pCXLE-hOCT3/4-shp53, pCXLE-hSK, and pCXLE-hUL) to enhance the establishment efficiency of dedifferentiation of stem cells (Okita, K. et al., Nat. Methods. 8(5):409-12, 2011). The cells introduced with the reprogramming genes were cultured in an Eagle's minimal essential medium (EMEM, ATCC) and the medium was replaced at 24-hr intervals until cell confluency became 50%. When the confluency became 50%, 10 μM of a dedifferentiation induction-promoting peptide and a control peptide were treated, respectively, and the medium was replaced with Essential 8 Medium and the peptides were treated at the same time as the medium replacement every 24 hrs. The peptide was treated for 10 days at 24-hr intervals, and in order to verify dedifferentiation efficiency per peptide, alkaline phosphatase (AP), known as a marker of embryonic stem cells, was used. For AP staining, an alkaline phosphatase detection kit(Milipore) was used. The medium was removed, 4% paraformaldehyde was added to the cells and they were immobilized for 2 minutes, a Naphthol/Fast Red Violet staining agent was added in a well and reacted at room temperature in a dark space for 20 minutes or more, and then the staining agent was washed with Dulbecco's phosphate buffered saline (DPBS) and the number of stained colonies was verified with a microscope.

[3] = test system: human dermal fibroblasts introduced with reprogramming genes; experiment: Mesenchymal-epithelial transition (MET) by THY1/EPCAM flow cytometry (FACS); conditions: 10 days of peptide treatment; compared with control peptides C1 or C2; FIG. 3
Protocol: Using the same method as in Example 2-1, reprogramming genes were introduced into the cells by an electroporation method in human dermal fibroblasts and divided in a 6-well coated with Vitronectin. After 10 days of peptide treatment in which the cells were stabilized, the cells were collected in a 15 ml Falcon tube by using a scrapper and then centrifuged for 3 minutes at 1500 rpm. The cells were washed with a buffer (PBS) and then 1.5×10^5 cells were transferred to each tube by using cold PBS. THY1 (cat: sc-59398) and EPCAM (cat: ab20160) antibodies at a concentration of 10 μg/ml were diluted with a 3% BSA/PBS solution in the tube and reacted for 30 minutes at 4° C., and then centrifuged three times for 5 minutes at 1500 rpm. After washing with cold PBS, the cells were transferred to a round tube and analyzed by flow cytometry (FACS). Before measuring samples, a control reference value was fixed using THY1 for human dermal fibroblasts and EPCAM for a human mammary epithelial cell (HMEC).

Sequence | Oct4 fluorescence expression (IF) [1] | dedifferentiation induction, graph counting and quantifying the number of colonies [2] | AP-stained colonies [2] | AP staining clarity [2] | change of mesenchymal shape of dermal fibroblasts to epithelial shape (THY1/EPCAM, FACS) [3]
GKCSTRGRKMCRRKK [Peptide P3] | more fluorescence was expressed | more efficiently induced dedifferentiation | more colonies were stained | clearer | significantly changed to an epithelial shape
GKCSTRGRKCCRRKK (Functional Peptide P1) [dedifferentiation induction-promoting functional peptide] | more fluorescence was expressed | more efficiently induced dedifferentiation | more colonies were stained | clearer | significantly changed to an epithelial shape
GKCSTRGRKCMRRKK (Functional Peptide P2) [peptide P1 with the fifth cysteine of C terminal substituted with methionine] | more fluorescence was expressed | more efficiently induced dedifferentiation | more colonies were stained | clearer | significantly changed to an epithelial shape
